Measurements reported in patent publication US9212168B2 (priority 2011, dated 2015).
pEC50: −log10 of the molar value.

The molecules below were run on HCV genotype 1a replicon (assay: HCV genotype 1a replicon assay (NS3 protease activity readout)). Conditions: HCV genotype 1a replicon.
Assay type: cell-based, hepatitis C virus
In short: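 EC50 values came from a 4-parameter robust fit of fluorescence (ex 340, em 509 nm) produced by NS3-specific protease in lysates, assayed with 15 μM FRET substrate for 20 min at 37° C, after 48 or 72 hours of compound exposure (0.5% DMSO) of Huh7.5-derived APC89 genotype 1a replicon cells.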
In the case of `COC(=O)N[C@H](C(=O)N1C[C@@H](C)C[C@H]1c1nc(-c2ccc(-c3cc(F)c(NC(=O)c4ccc(N5CCN(C(=O)C6CC67CC7)C[C@H]5C)nc4)cc3F)cc2)c[nH]1)C(C)C` (stereo partly drawn) [Example 1-90], the “Genotype 1a” value was “C (C represents pEC50 between and 9 and about 10, (EC50 between 1 nM and 0.1 nM))”.
With `COC(=O)N[C@H](C(=O)N1C[C@@H](C)C[C@H]1c1nc(-c2ccc(-c3ccc(C(=O)Nc4ccc(N5CCN(C(=O)C(C)(C)C)C[C@H]5C)nc4)cc3OC(F)(F)F)cc2)c[nH]1)C(C)C` [Example 4-36] the “Genotype 1a” value was “C (C represents pEC50 between and 9 and about 10, (EC50 between 1 nM and 0.1 nM))”.
With `COC(=O)NC(C(=O)N1CC(OC)CC1c1nc(-c2ccc(-c3cc(F)c(NC(=O)c4ccc(N5CCN(C(=O)C(C)(C)C)CC5C)nc4)cc3OC(F)(F)F)cc2)c[nH]1)C(C)(C)O` (stereo not drawn) [Example 16-6] the “Genotype 1a” value was “D (D represents pEC50>10 (EC50<0.1 nM))”.
For `COC(=O)N[C@H](C(=O)N1C[C@@H](C)C[C@H]1c1nc(-c2ccc(-c3ccc(C(=O)Nc4ccc(N5C[C@H](C)N(C(=O)C(C)(C)C)C[C@H]5C)nc4)cc3OC(F)(F)F)cc2)c[nH]1)C(C)C` [Example 4-15], the “Genotype 1a” value was “D (D represents pEC50>10 (EC50<0.1 nM))”.
In the case of `COC(=O)NC(C(=O)N1CC(OC)CC1c1nc(-c2ccc(-c3cc(Cl)c(NC(=O)c4ccc(N5CCN(C(=O)C(C)(C)CO)CC5C)nc4)cc3OC(F)(F)F)cc2)c[nH]1)C(C)OC` (stereo not drawn) [Example 16-8], the “Genotype 1a” value was “D (D represents pEC50>10 (EC50<0.1 nM))”.
`COC(=O)N[C@H](C(=O)N1C[C@@H](C)C[C@H]1c1nc(-c2ccc(-c3cc(Cl)c(NC(=O)c4ccc(N5CCN(C(=O)[C@H]6CCCN6C(=O)C6CC6)C[C@H]5C)nc4)cc3OC(F)(F)F)cc2)c[nH]1)C(C)C` [Example 1-51] was tested, and the “Genotype 1a” value was “D (D represents pEC50>10 (EC50<0.1 nM))”.
For `CNC(=O)N1CCC[C@@]1(C)C(=O)N1CCN(c2ccc(C(=O)Nc3cc(OC(F)(F)F)c(-c4ccc(-c5c[nH]c([C@@H]6C[C@H](C)CN6C(=O)[C@@H](NC(=O)OC)C(C)C)n5)cc4)cc3F)cn2)[C@H](C)C1` [Example 1-28], the “Genotype 1a” value was “D (D represents pEC50>10 (EC50<0.1 nM))”.
`CNC(=O)N1CCN(c2ccc(C(=O)Nc3ccc(-c4ccc(-c5c[nH]c([C@@H]6C[C@H](O)CN6C(=O)[C@@H](NC(=O)OC)C(C)C)n5)cc4)cc3)cn2)[C@H](C)C1` [Example 26-3] was tested, and the “Genotype 1a” value was “B (B represents pEC50 between 8 and 9 (EC50 between 1 and 10 nM))”.
With `COC(=O)NC(C(=O)N1CC(OC)CC1c1nc(-c2ccc(-c3ccc(NC(=O)c4ccc(N5CCN(C(=O)C(C)(C)C)CC5C)nc4)cc3OC(F)(F)F)cc2)c[nH]1)C(C)O` (stereo not drawn) [Example 16-10] the “Genotype 1a” value was “C (C represents pEC50 between and 9 and about 10, (EC50 between 1 nM and 0.1 nM))”.
In the case of `COC(=O)N[C@H](C(=O)N1C[C@@H](C)C[C@H]1c1nc(-c2ccc(-c3cc(Cl)c(NC(=O)c4ccc(N5CCN(C(=O)[C@H]6CC6(C)C)C[C@H]5C)nc4)cc3C(F)(F)F)cc2)c[nH]1)C(C)C` [Example 1-31], the “Genotype 1a” value was “D (D represents pEC50>10 (EC50<0.1 nM))”.
With `COC(=O)N[C@H](C(=O)N1C[C@@H](C)C[C@H]1c1nc(-c2ccc(-c3cc(Cl)c(NC(=O)c4ccc(N5CCN(C(=O)C(C)(C)CO)C(CO)C5)nc4)cc3OC(F)(F)F)cc2)c[nH]1)C(C)C` (stereo partly drawn) [Example 14-4] the “Genotype 1a” value was “B (B represents pEC50 between 8 and 9 (EC50 between 1 and 10 nM))”.
`COC(=O)N[C@H](C(=O)N1C[C@@H](N(C)C)C[C@H]1c1nc(-c2ccc(-c3ccc(NC(=O)c4ccc(N5CCN(C(=O)[C@H]6CC6(C)C)C[C@H]5C)nc4)cc3C)cc2)c[nH]1)C(C)C` [Example 2-4] was tested, and the “Genotype 1a” value was “D (D represents pEC50>10 (EC50<0.1 nM))”.
`COC(=O)N[C@H](C(=O)N1C[C@@H](C)C[C@H]1c1nc(-c2ccc(-c3ccc(C(=O)Nc4ccc(N5C[C@H](C)N(C(=O)C6CC6(Cl)Cl)C[C@H]5C)nc4)cc3OC(F)(F)F)cc2)c[nH]1)C(C)C` (stereo partly drawn) [Example 4-23] was tested, and the “Genotype 1a” value was “C (C represents pEC50 between and 9 and about 10, (EC50 between 1 nM and 0.1 nM))”.
`COC(=O)N[C@H](C(=O)N1C[C@@H](C)C[C@H]1c1nc(-c2ccc(-c3cc(F)c(C(=O)Nc4ccc(N5CCN(C(=O)C(C)(C)C)C[C@H]5C)nc4)cc3OC(F)(F)F)cc2)c(Cl)[nH]1)C(C)C` [Example 4-45] was tested, and the “Genotype 1a” value was “C (C represents pEC50 between and 9 and about 10, (EC50 between 1 nM and 0.1 nM))”.
In the case of `COC(=O)NC(C(=O)N1CC(C)CC1c1nc(-c2ccc(-c3ccc(NC(=O)c4ccc(N5CCN(C(=O)C(C)(C)C)CC5C)nc4)cc3OC(F)(F)F)cc2)c[nH]1)C(C)OC` (stereo not drawn) [Example 13-14], the “Genotype 1a” value was “D (D represents pEC50>10 (EC50<0.1 nM))”.
For `COC(=O)N[C@H](C(=O)N1C[C@@H](C)C[C@H]1c1nc(-c2ccc(-c3cc(F)c(NC(=O)c4ccc(N5CCN(C(=O)[C@H]6CC6(C)C)C[C@H]5C)nc4)cc3Cl)cc2)c[nH]1)C(C)C` [Example 1-76], the “Genotype 1a” value was “D (D represents pEC50>10 (EC50<0.1 nM))”.
In the case of `COC(=O)N[C@H](C(=O)N1C[C@@H](C)C[C@H]1c1nc(-c2ccc(-c3ccc(C(=O)Nc4ccc(N5CCN(C(=O)C(C)(C)C)C[C@H]5C)nc4)cc3OC(F)F)cc2)c[nH]1)C1CCOCC1` [Example 25-5], the “Genotype 1a” value was “D (D represents pEC50>10 (EC50<0.1 nM))”.

Same assay, conditions: Hepatitis C virus, read-out: Genotype 1a, HCV genotype 1a replicon
With `COC(=O)N[C@H](C(=O)N1[C@@H]2C[C@@H]2C[C@H]1c1nc(-c2ccc(-c3ccc(C(=O)Nc4ccc(N5CCN(C(=O)C(C)(C)C)C[C@H]5C)nc4)cc3OC(F)(F)F)cc2)c(Cl)[nH]1)C(C)C` [Example 9-1] the pEC50 was 9.00 to 10.00.
`COC(=O)N[C@H](C(=O)N1CC2(C[C@H]1c1nc(-c3ccc(-c4cc(Cl)c(NC(=O)c5ccc(N6CCN(C(=O)C(C)(C)C)C[C@H]6C)nc5)cc4OC(F)(F)F)cc3)c[nH]1)OCCO2)C(C)C` [Example 5-11] was tested, and the pEC50 was greater than 10.00.
`COC(=O)NCC(C)(C)C(=O)N1CCN(c2ccc(C(=O)Nc3cc(OC(F)(F)F)c(-c4ccc(-c5c[nH]c([C@@H]6C[C@H](C)CN6C(=O)[C@@H](NC(=O)OC)C(C)C)n5)cc4)cc3Cl)cn2)[C@H](C)C1` [Example 12-39] was tested, and the pEC50 was greater than 10.00.
Work on `COC(=O)N[C@H](C(=O)N1C[C@H](OC)C[C@H]1c1nc(-c2ccc(-c3cc(Cl)c(NC(=O)c4ccc(N5CCN(C(=O)C(C)(C)C)C[C@H]5C)nc4)cc3OC(F)(F)F)cc2)c[nH]1)C(C)C` [Example 5-19] yielded a pEC50 greater than 10.00.
Molecule `CCC(=O)NCC(C)(C)C(=O)N1CCN(c2ccc(C(=O)Nc3cc(OC(F)(F)F)c(-c4ccc(-c5c[nH]c([C@@H]6C[C@H](C)CN6C(=O)[C@@H](NC(=O)OC)C(C)C)n5)cc4)cc3Cl)cn2)[C@H](C)C1` [Example 12-41] has a pEC50 of 9.00 to 10.00.
Molecule `COC(=O)CC(=O)NCC(C)(C)C(=O)N1CCN(c2ccc(C(=O)Nc3cc(OC(F)(F)F)c(-c4ccc(-c5c[nH]c([C@@H]6C[C@H](C)CN6C(=O)[C@@H](NC(=O)OC)C(C)C)n5)cc4)cc3Cl)cn2)[C@H](C)C1` [Example 12-33] has a pEC50 of 9.00 to 10.00.
`COC(=O)N[C@H](C(=O)N1C[C@@H](N(C)C)C[C@H]1c1nc(-c2ccc(-c3ccc(C(=O)Nc4ccc(N5CCN(C(=O)C(C)(C)C)C[C@H]5C)nc4)cc3OC(F)(F)F)cc2)c(Cl)[nH]1)C(C)C` [Example 10-3] showed a pEC50 greater than 10.00.
